# Values of other authors as cited in patent US11472851B2, “Recombinant bacillus subtilis and application thereof” (priority 2019, dated 2022).
substance,measurement,setting,value
Sublancin (GLGKAQCAALWLQCASGGTIGCGGGAVACQNYRQFCR; Sublancin),phagocytosis of macrophages,macrophages,enhance the phagocytosis of macrophages
same,immune function of poultry,poultry,enhance the immune function of poultry
